Blank lines part the entries; values can stand above or below the molecule they belong to. The source made the active and inactive calls.
How the values were obtained:
[1] = molecular target: Serine/threonine-protein kinase pim-2 (Homo sapiens, UniProt Q9P1W9); assay type: functional;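 note: value comes from a broad kinase panel profiling study in which PIM2 was one of the panel members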
[2] = molecular target: MAP kinase-activated protein kinase 2 (Homo sapiens, UniProt P49137); assay type: functional;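 note: measured as one member of a kinome-wide kinase panel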
Cytochrome P450 2C9 = Cytochrome P450 2C9 (Homo sapiens, UniProt P11712)
[3] = molecular target: Cyclin-dependent kinase 1 (Homo sapiens, UniProt P06493); assay type: functional;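 note: Kinome-wide panel profiling, with the target listed as panel member CDC2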
[4] = molecular target: cAMP-dependent protein kinase catalytic subunit alpha (Homo sapiens, UniProt P17612); assay type: functional
[5] = molecular target: Homeodomain-interacting protein kinase 2 (Homo sapiens, UniProt Q9H2X6); assay type: functional;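 note: measured within a kinome-wide kinase profiling panel, HIPK2 being one panel member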
[6] = molecular target: Fibroblast growth factor receptor 3 (Homo sapiens, UniProt P22607); assay type: functional
[7] = molecular target: Mitogen-activated protein kinase 1 (Homo sapiens, UniProt P28482); assay type: functional
[8] = molecular target: Vascular endothelial growth factor receptor 1 (Homo sapiens, UniProt P17948); assay type: functional;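 note: measured within a kinome-wide profiling panel, FLT1 as the panel member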
[9] = molecular target: Interleukin-1 receptor-associated kinase 4 (Homo sapiens, UniProt Q9NWZ3); assay type: functional
[10] = molecular target: Dual specificity tyrosine-phosphorylation-regulated kinase 3 (Homo sapiens, UniProt O43781); assay type: functional;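 note: measured as one member of a broad kinase panel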
[11] = molecular target: Proto-oncogene tyrosine-protein kinase receptor Ret (Homo sapiens, UniProt P07949); assay type: functional;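 note: measured within a kinome-wide profiling panel, RET as the panel member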
[12] = molecular target: Tyrosine-protein kinase ABL1 (Homo sapiens, UniProt P00519); assay type: functional
[13] = molecular target: 5'-AMP-activated protein kinase catalytic subunit alpha-1 (Homo sapiens, UniProt Q13131); assay type: functional
[14] = molecular target: Insulin-like growth factor 1 receptor (Homo sapiens, UniProt P08069); assay: Navigating the Kinome. Panel member name: IGF1R; assay type: functional
[15] = molecular target: Glycogen synthase kinase-3 beta (Homo sapiens, UniProt P49841); assay type: functional;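 note: value comes from a broad kinome profiling panel, with GSK3B as the panel member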
[16] = molecular target: Serine/threonine-protein kinase pim-3 (Homo sapiens, UniProt Q86V86); assay type: functional;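 note: value obtained as one member of a broad kinase panel profiling effort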
[17] = molecular target: cAMP-dependent protein kinase catalytic subunit PRKX (Homo sapiens, UniProt P51817); assay type: functional
[18] = molecular target: Rho-associated protein kinase 2 (Homo sapiens, UniProt O75116); assay type: functional
[19] = molecular target: Serine/threonine-protein kinase DCLK1 (Homo sapiens, UniProt O15075); assay type: functional;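 note: affinity for DCLK1 (listed as DCAMKL1) measured as one member of a kinome-wide kinase profiling panel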
[20] = molecular target: STE20-like serine/threonine-protein kinase (Homo sapiens, UniProt Q9H2G2); assay type: functional
[21] = molecular target: Calcium/calmodulin-dependent protein kinase type 1 (Homo sapiens, UniProt Q14012); assay type: functional
[22] = molecular target: High affinity nerve growth factor receptor (Homo sapiens, UniProt P04629); assay type: functional;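 note: NTRK1 tested as one member of a kinome-wide profiling panel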
[23] = molecular target: Tyrosine-protein kinase Fer (Homo sapiens, UniProt P16591); assay type: functional;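 note: FER tested as one member of a kinome panel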
[24] = molecular target: Serine/threonine-protein kinase PAK 4 (Homo sapiens, UniProt O96013); assay type: functional;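 note: value obtained within a kinome profiling panel in which PAK4 was one of the panel members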
[25] = molecular target: Hepatocyte growth factor receptor (Homo sapiens, UniProt P08581); assay type: functional;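 note: kinase panel profiling across the kinome, with MET as the panel member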
[26] = molecular target: Dual specificity tyrosine-phosphorylation-regulated kinase 4 (Homo sapiens, UniProt Q9NR20); assay type: functional
[27] = molecular target: Serine/threonine-protein kinase Nek4 (Homo sapiens, UniProt P51957); assay type: functional
[28] = molecular target: Serine/threonine-protein kinase N2 (Homo sapiens, UniProt Q16513); assay type: functional
Prothrombin = Prothrombin (Homo sapiens, UniProt P00734); assay: Thrombin 1536 HTS Dose Response Confirmation. [Related pubchem assays: 1046 (Thrombin 1536 HTS; hits were confirmed in this assay)]; assay type: functional
[29] = molecular target: T1, Corticotropin-releasing factor receptor 2/Corticotropin-releasing factor-binding protein (Homo sapiens, UniProt P24387+Q13324); assay: activators of CRF receptor 2 with binding protein – uHTS hits, confirmation (AID 602473); assay type: functional; settings: read-out: EC50_Mean
T1 sequence (Q13324 whole entry): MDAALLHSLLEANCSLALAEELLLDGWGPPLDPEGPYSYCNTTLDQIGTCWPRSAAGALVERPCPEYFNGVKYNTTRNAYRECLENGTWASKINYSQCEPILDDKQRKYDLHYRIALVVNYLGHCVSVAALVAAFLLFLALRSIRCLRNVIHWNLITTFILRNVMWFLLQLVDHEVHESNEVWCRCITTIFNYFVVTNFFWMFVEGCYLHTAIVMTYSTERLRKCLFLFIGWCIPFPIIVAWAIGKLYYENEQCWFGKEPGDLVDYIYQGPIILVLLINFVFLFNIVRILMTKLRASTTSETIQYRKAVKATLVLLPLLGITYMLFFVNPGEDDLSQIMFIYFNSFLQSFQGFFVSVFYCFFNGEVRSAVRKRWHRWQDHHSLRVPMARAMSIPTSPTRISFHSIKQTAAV
T1 sequence (P24387 whole entry): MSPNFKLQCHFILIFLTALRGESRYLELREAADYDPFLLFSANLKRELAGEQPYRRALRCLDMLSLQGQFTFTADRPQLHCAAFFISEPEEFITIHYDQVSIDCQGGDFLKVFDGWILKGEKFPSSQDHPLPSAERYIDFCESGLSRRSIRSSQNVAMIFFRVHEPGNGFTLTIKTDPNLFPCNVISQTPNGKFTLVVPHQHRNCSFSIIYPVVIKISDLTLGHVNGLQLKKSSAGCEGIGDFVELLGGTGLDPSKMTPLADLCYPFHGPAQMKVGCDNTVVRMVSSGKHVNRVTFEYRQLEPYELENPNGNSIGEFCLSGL

Caspase-7 = Caspase-7 (Homo sapiens, UniProt P55210); assay: caspase-7 enzyme inhibition, selectivity check – biochemical, DEVD-R110 fluorescence, cherry-pick, selectivity assay for caspase-6 inhibitor project, dose response (AID 743295); assay type: functional
[30] = molecular target: Tyrosyl-DNA phosphodiesterase 2 (Homo sapiens, UniProt O95551); assay: potency against TDP2 phosphodiesterase activity – biochemical, epi absorbance, IC50, dose response (AID 743297)
[31] = molecular target: Heat shock protein HSP 90-alpha (Homo sapiens, UniProt P07900); assay type: functional, organism-based

Sequence of Dual specificity tyrosine-phosphorylation-regulated kinase 3 (O43781 whole entry): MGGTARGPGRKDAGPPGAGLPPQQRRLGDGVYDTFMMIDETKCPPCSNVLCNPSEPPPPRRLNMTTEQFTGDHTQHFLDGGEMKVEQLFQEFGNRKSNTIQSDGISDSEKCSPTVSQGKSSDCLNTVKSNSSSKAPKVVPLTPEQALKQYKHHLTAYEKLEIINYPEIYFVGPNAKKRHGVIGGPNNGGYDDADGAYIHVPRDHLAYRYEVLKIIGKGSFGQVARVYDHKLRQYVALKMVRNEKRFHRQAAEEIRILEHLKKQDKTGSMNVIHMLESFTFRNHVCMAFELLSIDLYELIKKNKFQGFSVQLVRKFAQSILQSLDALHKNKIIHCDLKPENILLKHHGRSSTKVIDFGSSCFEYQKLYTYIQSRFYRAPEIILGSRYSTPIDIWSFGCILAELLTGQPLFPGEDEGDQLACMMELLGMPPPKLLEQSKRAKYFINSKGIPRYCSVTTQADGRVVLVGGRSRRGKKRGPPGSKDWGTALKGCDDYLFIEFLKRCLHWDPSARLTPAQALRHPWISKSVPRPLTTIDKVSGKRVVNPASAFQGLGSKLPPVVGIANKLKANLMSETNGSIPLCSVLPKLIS
Sequence of 5'-AMP-activated protein kinase catalytic subunit alpha-1 (Q13131 whole entry): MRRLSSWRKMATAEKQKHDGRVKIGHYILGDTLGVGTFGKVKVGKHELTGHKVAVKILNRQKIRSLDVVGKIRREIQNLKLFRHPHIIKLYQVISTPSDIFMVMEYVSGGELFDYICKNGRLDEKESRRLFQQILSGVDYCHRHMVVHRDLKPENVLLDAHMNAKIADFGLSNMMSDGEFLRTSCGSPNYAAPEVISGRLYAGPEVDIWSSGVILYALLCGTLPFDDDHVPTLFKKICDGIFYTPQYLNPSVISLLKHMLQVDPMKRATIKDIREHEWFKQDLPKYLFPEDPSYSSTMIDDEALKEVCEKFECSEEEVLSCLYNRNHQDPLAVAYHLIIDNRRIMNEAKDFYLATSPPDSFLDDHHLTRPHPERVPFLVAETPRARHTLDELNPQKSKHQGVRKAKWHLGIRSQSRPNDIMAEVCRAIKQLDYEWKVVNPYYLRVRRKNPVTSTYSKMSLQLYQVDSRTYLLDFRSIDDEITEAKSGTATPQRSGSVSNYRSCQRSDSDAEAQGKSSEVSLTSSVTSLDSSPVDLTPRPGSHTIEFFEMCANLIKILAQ
Sequence of Glycogen synthase kinase-3 beta (P49841 whole entry): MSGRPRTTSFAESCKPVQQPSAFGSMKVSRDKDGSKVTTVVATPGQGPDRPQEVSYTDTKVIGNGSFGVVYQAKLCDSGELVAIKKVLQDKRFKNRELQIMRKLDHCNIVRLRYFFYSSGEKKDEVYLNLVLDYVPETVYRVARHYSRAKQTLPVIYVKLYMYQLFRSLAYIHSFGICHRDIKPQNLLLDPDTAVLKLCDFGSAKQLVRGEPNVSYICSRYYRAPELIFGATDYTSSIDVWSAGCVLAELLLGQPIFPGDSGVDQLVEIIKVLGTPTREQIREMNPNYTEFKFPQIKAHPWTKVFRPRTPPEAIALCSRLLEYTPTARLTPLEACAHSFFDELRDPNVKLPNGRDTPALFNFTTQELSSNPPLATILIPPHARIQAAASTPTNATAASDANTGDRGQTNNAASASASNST
Sequence of Proto-oncogene tyrosine-protein kinase receptor Ret (P07949 whole entry): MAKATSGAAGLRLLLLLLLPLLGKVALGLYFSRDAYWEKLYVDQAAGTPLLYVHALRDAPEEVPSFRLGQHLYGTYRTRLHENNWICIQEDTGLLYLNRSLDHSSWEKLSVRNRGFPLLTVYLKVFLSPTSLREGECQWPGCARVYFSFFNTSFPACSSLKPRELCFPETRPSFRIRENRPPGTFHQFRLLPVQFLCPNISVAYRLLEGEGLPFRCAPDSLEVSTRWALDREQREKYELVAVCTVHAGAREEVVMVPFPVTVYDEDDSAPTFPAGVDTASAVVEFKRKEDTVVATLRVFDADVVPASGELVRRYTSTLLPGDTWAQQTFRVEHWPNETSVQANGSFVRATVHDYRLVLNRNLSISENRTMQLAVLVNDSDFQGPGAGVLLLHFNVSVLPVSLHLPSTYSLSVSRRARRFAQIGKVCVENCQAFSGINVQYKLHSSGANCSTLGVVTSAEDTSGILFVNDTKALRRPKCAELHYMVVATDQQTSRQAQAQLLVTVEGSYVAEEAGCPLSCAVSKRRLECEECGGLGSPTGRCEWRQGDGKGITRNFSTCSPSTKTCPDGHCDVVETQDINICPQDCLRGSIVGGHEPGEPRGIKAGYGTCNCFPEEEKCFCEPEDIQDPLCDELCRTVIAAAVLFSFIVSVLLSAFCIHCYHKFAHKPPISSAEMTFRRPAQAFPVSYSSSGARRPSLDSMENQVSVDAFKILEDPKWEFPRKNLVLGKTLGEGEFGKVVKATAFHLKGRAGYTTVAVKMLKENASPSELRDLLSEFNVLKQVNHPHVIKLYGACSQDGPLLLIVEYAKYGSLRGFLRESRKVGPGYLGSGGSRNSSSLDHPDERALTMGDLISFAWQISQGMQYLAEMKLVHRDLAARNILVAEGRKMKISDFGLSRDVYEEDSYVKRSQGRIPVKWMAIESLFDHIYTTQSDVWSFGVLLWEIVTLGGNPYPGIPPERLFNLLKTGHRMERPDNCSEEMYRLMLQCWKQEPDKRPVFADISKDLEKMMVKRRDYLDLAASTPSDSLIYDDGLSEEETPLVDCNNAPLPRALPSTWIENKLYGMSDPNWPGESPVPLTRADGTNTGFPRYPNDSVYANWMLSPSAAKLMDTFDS
Sequence of Tyrosyl-DNA phosphodiesterase 2 (O95551 whole entry): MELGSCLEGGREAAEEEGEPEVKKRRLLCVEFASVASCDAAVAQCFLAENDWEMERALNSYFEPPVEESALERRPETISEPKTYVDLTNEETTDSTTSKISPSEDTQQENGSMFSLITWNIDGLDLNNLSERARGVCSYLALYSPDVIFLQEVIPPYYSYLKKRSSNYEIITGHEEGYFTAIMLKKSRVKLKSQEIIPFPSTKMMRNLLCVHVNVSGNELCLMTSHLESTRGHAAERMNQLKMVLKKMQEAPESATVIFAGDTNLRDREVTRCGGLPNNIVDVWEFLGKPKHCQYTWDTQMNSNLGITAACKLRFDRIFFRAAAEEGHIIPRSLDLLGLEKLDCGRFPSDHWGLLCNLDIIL
Sequence of Hepatocyte growth factor receptor (P08581 whole entry): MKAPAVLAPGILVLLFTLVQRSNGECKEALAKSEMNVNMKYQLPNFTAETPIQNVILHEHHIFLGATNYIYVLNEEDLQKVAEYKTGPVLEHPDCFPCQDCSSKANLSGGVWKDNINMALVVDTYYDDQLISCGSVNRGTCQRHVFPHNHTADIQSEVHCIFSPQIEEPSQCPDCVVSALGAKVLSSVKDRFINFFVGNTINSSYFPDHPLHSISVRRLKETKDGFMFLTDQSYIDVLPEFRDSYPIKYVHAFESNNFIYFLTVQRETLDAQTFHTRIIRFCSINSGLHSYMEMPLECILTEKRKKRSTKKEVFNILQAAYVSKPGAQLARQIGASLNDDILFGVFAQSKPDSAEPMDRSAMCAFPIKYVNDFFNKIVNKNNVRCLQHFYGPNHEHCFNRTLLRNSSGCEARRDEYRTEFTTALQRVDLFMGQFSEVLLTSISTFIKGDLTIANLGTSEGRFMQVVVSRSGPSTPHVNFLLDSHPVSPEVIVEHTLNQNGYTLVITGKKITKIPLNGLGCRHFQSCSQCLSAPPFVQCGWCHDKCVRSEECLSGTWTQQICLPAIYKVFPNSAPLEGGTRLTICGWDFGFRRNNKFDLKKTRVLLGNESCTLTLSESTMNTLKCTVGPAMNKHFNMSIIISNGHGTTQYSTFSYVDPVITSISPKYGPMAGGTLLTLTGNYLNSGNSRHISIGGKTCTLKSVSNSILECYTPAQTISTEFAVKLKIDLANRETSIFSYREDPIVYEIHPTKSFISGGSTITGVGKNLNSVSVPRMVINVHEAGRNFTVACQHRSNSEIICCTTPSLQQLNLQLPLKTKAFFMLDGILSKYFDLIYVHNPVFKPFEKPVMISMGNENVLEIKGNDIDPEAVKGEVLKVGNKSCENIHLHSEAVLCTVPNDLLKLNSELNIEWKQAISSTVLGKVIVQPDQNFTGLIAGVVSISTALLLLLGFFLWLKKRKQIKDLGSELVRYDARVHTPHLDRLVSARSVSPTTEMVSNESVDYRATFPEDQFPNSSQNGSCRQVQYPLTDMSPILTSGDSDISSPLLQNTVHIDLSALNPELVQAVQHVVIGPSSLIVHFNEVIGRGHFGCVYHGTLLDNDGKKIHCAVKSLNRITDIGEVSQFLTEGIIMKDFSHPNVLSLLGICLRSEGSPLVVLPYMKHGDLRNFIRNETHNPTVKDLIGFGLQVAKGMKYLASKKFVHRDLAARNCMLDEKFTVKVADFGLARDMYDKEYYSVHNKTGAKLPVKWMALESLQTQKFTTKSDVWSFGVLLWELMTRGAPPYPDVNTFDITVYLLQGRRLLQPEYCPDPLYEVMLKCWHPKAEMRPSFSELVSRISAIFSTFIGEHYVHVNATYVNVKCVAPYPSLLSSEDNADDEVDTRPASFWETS
Sequence of cAMP-dependent protein kinase catalytic subunit PRKX (P51817 whole entry): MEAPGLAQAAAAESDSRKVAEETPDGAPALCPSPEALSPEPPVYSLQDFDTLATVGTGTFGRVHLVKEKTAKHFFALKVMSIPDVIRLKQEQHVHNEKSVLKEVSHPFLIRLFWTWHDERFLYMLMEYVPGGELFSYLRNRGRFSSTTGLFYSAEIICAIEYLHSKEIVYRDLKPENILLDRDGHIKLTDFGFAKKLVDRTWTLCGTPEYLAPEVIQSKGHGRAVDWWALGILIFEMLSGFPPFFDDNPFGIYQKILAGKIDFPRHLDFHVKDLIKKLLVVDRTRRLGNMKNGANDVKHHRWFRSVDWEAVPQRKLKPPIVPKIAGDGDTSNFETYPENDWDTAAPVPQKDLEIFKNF

Structure (SMILES): Oc1c2ccccc2c2c3c(cccc13)N=N2 [SP-600125]
Ki [1]: 0.316 µM (active) | Ki [2]: > 7.94 µM (inactive) | AC50 (Cytochrome P450 2C9): inconclusive | Ki [3]: 1 µM (active) | Ki [4]: > 7.94 µM (inactive) | Ki [5]: 0.2 µM (active) | Ki [6]: 0.158 µM (active) | Ki [7]: 5.01 µM (active) | Ki [8]: 0.2 µM (active) | Ki [9]: 0.158 µM (active) | Ki [10]: 0.316 µM (active) | Ki [11]: 0.0631 µM (active) | Ki [12]: > 0.631 µM (inactive) | Ki [13]: > 1.58 µM (inactive) | Ki [14]: > 2 µM (inactive) | Ki [15]: 0.316 µM (active) | Ki [16]: 0.2 µM (active) | Ki [17]: > 1.58 µM (inactive) | Ki [18]: 3.16 µM (active) | Ki [19]: > 10 µM (inactive) | Ki [20]: 3.16 µM (active) | Ki [21]: > 1.58 µM (inactive) | Ki [22]: 1.26 µM (active) | Ki [23]: 0.0501 µM (active) | Ki [24]: > 5.01 µM (inactive) | Ki [25]: 0.501 µM (active) | Ki [26]: > 7.94 µM (inactive) | Ki [27]: 1 µM (active) | Ki [28]: > 7.94 µM (inactive)

IC50 (Prothrombin): > 50 µM (not active) | EC50 [29]: > 53 µM (inactive) | AC50 (Caspase-7): 14.6 µM (active)
Structure (SMILES): O=C(COC(=O)c1ccc([N+](=O)[O-])s1)Nc1cccc(S(=O)(=O)/N=C2/CCCCCN2)c1

Structure (SMILES): COc1ccc(C(C[N+](=O)[O-])c2c(C)[nH]n(-c3ccccc3)c2=O)cc1 (centres undefined)
IC50 [30]: 6.91 µM (active) | AC50 [31]: 7.91 µM (active)

— ChEMBL document CHEMBL1201862, “PubChem BioAssay data set” (2004)
